The subject of one experiment is human IgG1. The experiment in a line: Glycan microarray probed with human IgG1 (control of Table 7). Format: binding.
The target in the next experiment is T1, Clec10a-Fc (Mus musculus, UniProt P49300).
T1 construct: cloning the extracellular region of mouse Clec10a into a pME18S expression vector; made in house; host or cells: HEK293T cells
T1 sequence (P49300 57-304 limits assumed): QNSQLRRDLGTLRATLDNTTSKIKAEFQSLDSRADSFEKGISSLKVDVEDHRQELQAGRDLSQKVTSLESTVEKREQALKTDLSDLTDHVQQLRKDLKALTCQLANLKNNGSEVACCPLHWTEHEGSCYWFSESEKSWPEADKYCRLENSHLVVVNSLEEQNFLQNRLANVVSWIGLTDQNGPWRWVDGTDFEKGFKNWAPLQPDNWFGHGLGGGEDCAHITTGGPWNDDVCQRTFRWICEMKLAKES
The experiment in a line: Sugar conjugate (glycan) microarray analysis of Clec10a-Fc (Table 7). To be noted: for Signal value, Clec10a-Fc: glycan microarray probed with Clec10a-Fc; for Signal value, Clec10a-Fc with EDTA: glycan microarray probed with Clec10a-Fc with EDTA. Format: binding. How it is done: A sugar conjugate microarray containing 98 sugar conjugates (Table 3) was prepared according to a known method using a non-contact microarray printing robot (MicroSys 4000; Genomic Solutions).

The source of these data is patent publication US12617837B2, “Composition for use in treatment of allergic diseases” (UNIVERSITY OF TSUKUBA, priority 2019, dated 2026).

As for `CC(=O)N[C@@H]1[C@@H](O[C@H]2O[C@H](CO)[C@H](O)[C@H](O)[C@H]2O)[C@@H](O)[C@@H](CO)O[C@@H]1O` [Core8], in the experiment on human IgG1, the “Signal value, human IgG1” value turned out to be 0. For the same compound, at Clec10a-Fc, the “Signal value, Clec10a-Fc” value is reported as 0 and the “Signal value, Clec10a-Fc with EDTA” value is recorded as 0.

`CC(=O)N[C@@H]1[C@@H](O[C@H]2O[C@H](CO)[C@H](O)[C@H](O)[C@H]2NC(C)=O)[C@@H](O)[C@@H](CO)O[C@H]1O` [Forssman disaccharide]: in the experiment on human IgG1, the “Signal value, human IgG1” value is on record as 0. Also, on Clec10a-Fc, the “Signal value, Clec10a-Fc” value is 0 and the “Signal value, Clec10a-Fc with EDTA” value came out at 0.

Take `C[C@@H]1O[C@@H](O[C@@H]2[C@@H](O)[C@@H](O)[C@@H](CO)O[C@H]2O)[C@@H](O)[C@H](O)[C@@H]1O` [Fucα2Gal]: the “Signal value, human IgG1” value with human IgG1 is given as 0. On Clec10a-Fc, the “Signal value, Clec10a-Fc” value came out at 0 and the “Signal value, Clec10a-Fc with EDTA” value stood at 0.

Turning to `CC(=O)N[C@@H]1[C@@H](O[C@@H]2O[C@@H](C)[C@@H](O)[C@@H](O)[C@@H]2O)[C@H](O)[C@@H](CO)O[C@H]1O` [Fucα3GlcNAc], the “Signal value, human IgG1” value with human IgG1 is recorded as 0. On Clec10a-Fc, the “Signal value, Clec10a-Fc” value was determined as 0 and the “Signal value, Clec10a-Fc with EDTA” value came to 0.

Regarding `CC(=O)N[C@@H]1[C@@H](O)[C@H](O[C@@H]2O[C@@H](C)[C@@H](O)[C@@H](O)[C@@H]2O)[C@@H](CO)O[C@H]1O` [Fucα4GlcNAc], in the experiment on human IgG1, the “Signal value, human IgG1” value was found to be 0. On Clec10a-Fc, the “Signal value, Clec10a-Fc” value was 0 and the “Signal value, Clec10a-Fc with EDTA” value is listed as 0.

For `OC[C@H]1O[C@H](O[C@H]2C(O)O[C@H](CO)[C@H](O)[C@@H]2O)[C@H](O)[C@@H](O)[C@H]1O` (stereo partly drawn) [Galα1-2Gal], the “Signal value, human IgG1” value in the experiment on human IgG1 is 0. On Clec10a-Fc, the “Signal value, Clec10a-Fc” value was determined as 3 and the “Signal value, Clec10a-Fc with EDTA” value was 0.

As for `OC[C@H]1O[C@H](O[C@@H]2[C@@H](O)[C@H](O)O[C@H](CO)[C@@H]2O)[C@H](O)[C@@H](O)[C@H]1O` [Galα1-3Gal], the “Signal value, human IgG1” value with human IgG1 amounted to 0. Further, on Clec10a-Fc, the “Signal value, Clec10a-Fc” value is recorded as 144 and the “Signal value, Clec10a-Fc with EDTA” value is reported as 0.

As for `CC(=O)N[C@H]1[C@H](O[C@@H]2[C@H](O)[C@@H](O)[C@H](O[C@H]3[C@H](O)[C@@H](O)[C@H](O)O[C@@H]3CO)O[C@@H]2CO)O[C@H](CO)[C@H](O)[C@@H]1O` [Gα2], in the experiment on human IgG1, the “Signal value, human IgG1” value is reported as 0. Also, on Clec10a-Fc, the “Signal value, Clec10a-Fc” value was 0 and the “Signal value, Clec10a-Fc with EDTA” value worked out at 0.

On to `CC(=O)N[C@@H]1[C@@H](O[C@@H]2O[C@H](CO)[C@H](O)[C@H](O)[C@H]2O[C@@H]2O[C@@H](C)[C@@H](O)[C@@H](O)[C@@H]2O)[C@H](O)[C@@H](CO)O[C@H]1O` [H type1], for which the “Signal value, human IgG1” value in the experiment with human IgG1 amounted to 0. At Clec10a-Fc, the “Signal value, Clec10a-Fc” value amounted to 1 and the “Signal value, Clec10a-Fc with EDTA” value is 0.

As to `CC(=O)N[C@@H]1[C@@H](O)[C@H](O[C@@H]2O[C@H](CO)[C@H](O)[C@H](O)[C@H]2O[C@@H]2O[C@@H](C)[C@@H](O)[C@@H](O)[C@@H]2O)[C@@H](CO)O[C@H]1O` [H type2], the “Signal value, human IgG1” value in the experiment with human IgG1 came out at 0. In addition, on Clec10a-Fc, the “Signal value, Clec10a-Fc” value was found to be 0 and the “Signal value, Clec10a-Fc with EDTA” value is listed as 0.

`CC(=O)N[C@@H]1[C@@H](O)[C@H](O[C@@H]2O[C@H](CO)[C@H](O)[C@H](O)[C@H]2NC(C)=O)[C@@H](CO)O[C@H]1O` [LDN]: the “Signal value, human IgG1” value in the experiment on human IgG1 is 0. At Clec10a-Fc, the “Signal value, Clec10a-Fc” value worked out at 0 and the “Signal value, Clec10a-Fc with EDTA” value is on record as 0.

In the case of `CC(=O)N[C@@H]1[C@@H](O)[C@H](O[C@@H]2O[C@H](CO)[C@H](O)[C@H](O)[C@H]2O)[C@@H](CO)O[C@H]1O` [LN], the “Signal value, human IgG1” value in the experiment with human IgG1 was found to be 0. On Clec10a-Fc, the “Signal value, Clec10a-Fc” value is recorded as 7 and the “Signal value, Clec10a-Fc with EDTA” value turned out to be 0.

Turning to `OC[C@H]1O[C@@H](O[C@H]2[C@H](O)[C@@H](O)[C@H](O)O[C@@H]2CO)[C@H](O)[C@@H](O)[C@H]1O` [Lac], the “Signal value, human IgG1” value in the experiment with human IgG1 worked out at 0. Also, at Clec10a-Fc, the “Signal value, Clec10a-Fc” value amounted to 4850 and the “Signal value, Clec10a-Fc with EDTA” value worked out at 0.

Regarding `CC(=O)N[C@@H]1[C@@H](O[C@@H]2O[C@H](CO)[C@H](O)[C@H](O)[C@H]2O[C@@H]2O[C@@H](C)[C@@H](O)[C@@H](O)[C@@H]2O)[C@H](O[C@@H]2O[C@@H](C)[C@@H](O)[C@@H](O)[C@@H]2O)[C@@H](CO)O[C@H]1O` [Leb], in the experiment with human IgG1, the “Signal value, human IgG1” value stood at 0. Moreover, on Clec10a-Fc, the “Signal value, Clec10a-Fc” value came to 0 and the “Signal value, Clec10a-Fc with EDTA” value was found to be 0.

For the compound `CC(=O)N[C@@H]1[C@@H](O[C@@H]2O[C@H](CO)[C@H](O)[C@H](O)[C@H]2O)[C@H](O)[C@@H](CO)O[C@H]1O` [Lec], the “Signal value, human IgG1” value in the experiment on human IgG1 was found to be 0. Moreover, at Clec10a-Fc, the “Signal value, Clec10a-Fc” value is 2414 and the “Signal value, Clec10a-Fc with EDTA” value came to 0.

With `OC[C@H]1O[C@H](O[C@H]2[C@H](O)[C@@H](O)[C@H](O)O[C@@H]2CO)[C@H](O)[C@@H](O)[C@@H]1O` [Maltose], the “Signal value, human IgG1” value in the experiment with human IgG1 worked out at 0. Further, at Clec10a-Fc, the “Signal value, Clec10a-Fc” value is recorded as 0 and the “Signal value, Clec10a-Fc with EDTA” value is on record as 1.

Consider `OC[C@H]1O[C@H](OCC2O[C@@H](O)[C@H](O)[C@@H](O)[C@@H]2O)[C@H](O)[C@@H](O)[C@H]1O` (stereo partly drawn) [Melibiose], for which, in the experiment with human IgG1, the “Signal value, human IgG1” value came to 0. Also, at Clec10a-Fc, the “Signal value, Clec10a-Fc” value came to 45 and the “Signal value, Clec10a-Fc with EDTA” value is given as 0.

Turning to `CC(=O)N[C@H]1[C@H]([C@H](O)[C@H](O)CO)O[C@@](O)(C(=O)O)C[C@@H]1O` [Ne̊u5Ac], in the experiment on human IgG1, the “Signal value, human IgG1” value is 0. For the same compound, on Clec10a-Fc, the “Signal value, Clec10a-Fc” value turned out to be 0 and the “Signal value, Clec10a-Fc with EDTA” value is on record as 0.

`O=C(CO)N[C@H]1[C@H]([C@H](O)[C@H](O)CO)O[C@@](O)(C(=O)O)C[C@@H]1O` [Ne̊u5Gc]: the “Signal value, human IgG1” value with human IgG1 was 0. Also, on Clec10a-Fc, the “Signal value, Clec10a-Fc” value was 0 and the “Signal value, Clec10a-Fc with EDTA” value was 0.

With `CC(=O)N[C@H]1[C@H]([C@H](O)[C@H](O)CO)O[C@@](O[C@H](CO)[C@@H](O)[C@@H]2O[C@@](O[C@H](CO)[C@@H](O)[C@@H]3O[C@@](O)(C(=O)O)C[C@H](O)[C@H]3NC(C)=O)(C(=O)O)C[C@H](O)[C@H]2NC(C)=O)(C(=O)O)C[C@@H]1O` [Sia3], the “Signal value, human IgG1” value in the experiment on human IgG1 is on record as 0. Moreover, on Clec10a-Fc, the “Signal value, Clec10a-Fc” value stood at 19 and the “Signal value, Clec10a-Fc with EDTA” value turned out to be 3.

As to `CC(=O)N[C@@H]1[C@@H](O[C@@H]2O[C@H](CO)[C@H](O)[C@H](O)[C@H]2O)[C@@H](O)[C@@H](CO[C@]2(C(=O)O)C[C@H](O)[C@@H](NC(C)=O)[C@H]([C@H](O)[C@H](O)CO)O2)O[C@@H]1O` [Siaα2-6Core 1], the “Signal value, human IgG1” value in the experiment with human IgG1 is recorded as 0. Further, on Clec10a-Fc, the “Signal value, Clec10a-Fc” value worked out at 0 and the “Signal value, Clec10a-Fc with EDTA” value is 0.

Regarding `CC(=O)N[C@H]1[C@H]([C@H](O)[C@H](O)CO)O[C@@](O[C@H](CO)[C@@H](O)[C@@H]2O[C@@](O)(C(=O)O)C[C@H](O)[C@H]2NC(C)=O)(C(=O)O)C[C@@H]1O` [Siα2], the “Signal value, human IgG1” value in the experiment with human IgG1 is reported as 0. Also, at Clec10a-Fc, the “Signal value, Clec10a-Fc” value is 0 and the “Signal value, Clec10a-Fc with EDTA” value is given as 0.

With `CC(=O)N[C@@H]1[C@@H](O[C@@H]2O[C@H](CO)[C@H](O)[C@H](O)[C@H]2O)[C@@H](O)[C@@H](CO)O[C@@H]1O` [T (Core1)], the “Signal value, human IgG1” value in the experiment with human IgG1 stood at 0. Further, at Clec10a-Fc, the “Signal value, Clec10a-Fc” value is 2504 and the “Signal value, Clec10a-Fc with EDTA” value was 0.
